From the supplement of paper PMC10883282

Key:
Assay in all cases: relative viability vs DMSO control (72 h) (fraction); higher = more viable cells
SK-ES-1 = system: SK-ES-1
How it was run: (§1)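 Sarcoma cell lines in 384-well plates, seeded to reach 80–90% confluence, were given compound after 24 h and kept 72 h at 37 °C, 5% CO2, with 0.1% DMSO vehicle and a 5 µM positive control. Relative viability came from ATPLite as percent growth, averaged over up to triplicate wells. On the rescaled values, 1 equals full and 0 equals none.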

SW872 = system: SW872
How it was run: as §1

SW1353 = system: SW1353
How it was run: as §1

SK-LMS-1 = system: SK-LMS-1
How it was run: as §1

A204 = system: A204
How it was run: as §1

SW982 = system: SW982
How it was run: as §1

HS729 = system: HS729
How it was run: as §1

RD = system: RD
How it was run: as §1

KHOS-240S = system: KHOS-240S
How it was run: as §1

VA-ES-BJ = system: VA-ES-BJ
How it was run: as §1

MES-SA = system: MES-SA
How it was run: as §1

G401 = system: G401
How it was run: as §1

O=c1sn(-c2cccc3ccccc23)c(=O)n1Cc1ccccc1 [Tideglusib]
Details	relative viability
A204, 0.00017 µM	1.09
A204, 0.00051 µM	1.131
A204, 0.00152 µM	1.12
A204, 0.00457 µM	1.12
A204, 0.01372 µM	1.14
A204, 0.04115 µM	1.11
A204, 0.1235 µM	1.12
A204, 0.3704 µM	1.12
A204, 1.111 µM	1.134
A204, 3.333 µM	1.1
A204, 10 µM	1.07
G401, 0.00017 µM	1.08
G401, 0.00051 µM	1.12
G401, 0.00152 µM	1.08
G401, 0.00457 µM	1.1
G401, 0.01372 µM	1.08
G401, 0.04115 µM	1.07
G401, 0.1235 µM	1.05
G401, 0.3704 µM	1.04
G401, 1.111 µM	0.984
G401, 3.333 µM	0.9812
G401, 10 µM	0.918
HS729, 0.00017 µM	1.1
HS729, 0.00051 µM	1.07
HS729, 0.00152 µM	1.07
HS729, 0.00457 µM	1.04
HS729, 0.01372 µM	1.03
HS729, 0.04115 µM	1
HS729, 0.1235 µM	0.972
HS729, 0.3704 µM	0.956
HS729, 1.111 µM	0.908
HS729, 3.333 µM	0.933
HS729, 10 µM	0.861
KHOS-240S, 0.00017 µM	1.05
KHOS-240S, 0.00051 µM	1.07
KHOS-240S, 0.00152 µM	1.09
KHOS-240S, 0.00457 µM	1.07
KHOS-240S, 0.01372 µM	1.08
KHOS-240S, 0.04115 µM	1.07
KHOS-240S, 0.1235 µM	1.07
KHOS-240S, 0.3704 µM	1.06
KHOS-240S, 1.111 µM	1.03
KHOS-240S, 3.333 µM	1.01
KHOS-240S, 10 µM	0.993
MES-SA, 0.00017 µM	0.972
MES-SA, 0.00051 µM	0.971
MES-SA, 0.00152 µM	0.946
MES-SA, 0.00457 µM	0.968
MES-SA, 0.01372 µM	0.962
MES-SA, 0.04115 µM	0.963
MES-SA, 0.1235 µM	0.959
MES-SA, 0.3704 µM	0.95
MES-SA, 1.111 µM	0.94
MES-SA, 3.333 µM	0.924
MES-SA, 10 µM	0.878
RD, 0.00017 µM	1.08
RD, 0.00051 µM	1.12
RD, 0.00152 µM	1.13
RD, 0.00457 µM	1.12
RD, 0.01372 µM	1.14
RD, 0.04115 µM	1.13
RD, 0.1235 µM	1.11
RD, 0.3704 µM	1.1
RD, 1.111 µM	1.1
RD, 3.333 µM	1.12
RD, 10 µM	1.12
SK-ES-1, 0.00017 µM	1.03
SK-ES-1, 0.00051 µM	1.06
SK-ES-1, 0.00152 µM	1.09
SK-ES-1, 0.00457 µM	1.12
SK-ES-1, 0.01372 µM	1.083
SK-ES-1, 0.04115 µM	1.08
SK-ES-1, 0.1235 µM	1.05
SK-ES-1, 0.3704 µM	1.03
SK-ES-1, 1.111 µM	1.03
SK-ES-1, 3.333 µM	0.977
SK-ES-1, 10 µM	0.923
SK-LMS-1, 0.00017 µM	1.02
SK-LMS-1, 0.00051 µM	1.01
SK-LMS-1, 0.00152 µM	1.02
SK-LMS-1, 0.00457 µM	1.01
SK-LMS-1, 0.01372 µM	0.994
SK-LMS-1, 0.04115 µM	1.02
SK-LMS-1, 0.1235 µM	1.02
SK-LMS-1, 0.3704 µM	0.993
SK-LMS-1, 1.111 µM	1
SK-LMS-1, 3.333 µM	1.01
SK-LMS-1, 10 µM	0.986
SW872, 0.00017 µM	1.1
SW872, 0.00051 µM	1.09
SW872, 0.00152 µM	1.09
SW872, 0.00457 µM	1.09
SW872, 0.01372 µM	1.09
SW872, 0.04115 µM	1.1
SW872, 0.1235 µM	1.08
SW872, 0.3704 µM	1.05
SW872, 1.111 µM	1.07
SW872, 3.333 µM	1.07
SW872, 10 µM	1.03
SW982, 0.00017 µM	1.07
SW982, 0.00051 µM	1.09
SW982, 0.00152 µM	1.08
SW982, 0.00457 µM	1.11
SW982, 0.01372 µM	1.11
SW982, 0.04115 µM	1.11
SW982, 0.1235 µM	1.1
SW982, 0.3704 µM	1.09
SW982, 1.111 µM	1.068
SW982, 3.333 µM	1.08
SW982, 10 µM	1.05
SW1353, 0.00017 µM	1.07
SW1353, 0.00051 µM	1.05
SW1353, 0.00152 µM	1.08
SW1353, 0.00457 µM	1.04
SW1353, 0.01372 µM	1.02
SW1353, 0.04115 µM	1.05
SW1353, 0.1235 µM	1.03
SW1353, 0.3704 µM	0.966
SW1353, 1.111 µM	1.01
SW1353, 3.333 µM	0.987
SW1353, 10 µM	0.827
VA-ES-BJ, 0.00017 µM	1.1
VA-ES-BJ, 0.00051 µM	1.12
VA-ES-BJ, 0.00152 µM	1.08
VA-ES-BJ, 0.00457 µM	1.1
VA-ES-BJ, 0.01372 µM	1.08
VA-ES-BJ, 0.04115 µM	1.08
VA-ES-BJ, 0.1235 µM	1.08
VA-ES-BJ, 0.3704 µM	1.04
VA-ES-BJ, 1.111 µM	1.07
VA-ES-BJ, 3.333 µM	1.04
VA-ES-BJ, 10 µM	1.02
